Legend:
D2 Receptor = D2 Receptor (Homo sapiens, UniProt P14416); experiment: radioligand binding, [3H]N-methylspiperone; conditions: @ 10μM (Fig. 1c)
Dopamine receptor D2 = Dopamine receptor D2 (Homo sapiens, UniProt P14416); assay type: cell-based; conditions: Fig. 3A agonist assay
Dopamine receptor D4 = target: T1, Dopamine receptor D4 (Homo sapiens, UniProt P21917); assay type: cell-based; conditions: Fig. 3A agonist assay
T1 sequence (P21917 1-419): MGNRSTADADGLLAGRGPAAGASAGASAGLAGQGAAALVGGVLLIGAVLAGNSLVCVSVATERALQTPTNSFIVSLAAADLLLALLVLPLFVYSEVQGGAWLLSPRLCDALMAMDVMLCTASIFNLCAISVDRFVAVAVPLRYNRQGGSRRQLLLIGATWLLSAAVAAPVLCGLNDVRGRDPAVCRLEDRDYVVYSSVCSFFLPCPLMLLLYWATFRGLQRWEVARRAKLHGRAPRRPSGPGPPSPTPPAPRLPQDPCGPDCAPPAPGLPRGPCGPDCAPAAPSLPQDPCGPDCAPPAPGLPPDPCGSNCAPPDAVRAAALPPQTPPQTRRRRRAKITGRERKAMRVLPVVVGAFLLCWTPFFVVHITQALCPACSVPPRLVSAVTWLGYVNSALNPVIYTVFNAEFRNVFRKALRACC

D4 Receptor = target: T2, D4 Receptor (Homo sapiens, UniProt P21917); experiment: radioligand binding, [3H]N-methylspiperone; conditions: bound stated
T2 sequence (P21917 1-419): T1 sequence (P21917 1-419)

Chain of D2 Receptor (P14416 whole entry): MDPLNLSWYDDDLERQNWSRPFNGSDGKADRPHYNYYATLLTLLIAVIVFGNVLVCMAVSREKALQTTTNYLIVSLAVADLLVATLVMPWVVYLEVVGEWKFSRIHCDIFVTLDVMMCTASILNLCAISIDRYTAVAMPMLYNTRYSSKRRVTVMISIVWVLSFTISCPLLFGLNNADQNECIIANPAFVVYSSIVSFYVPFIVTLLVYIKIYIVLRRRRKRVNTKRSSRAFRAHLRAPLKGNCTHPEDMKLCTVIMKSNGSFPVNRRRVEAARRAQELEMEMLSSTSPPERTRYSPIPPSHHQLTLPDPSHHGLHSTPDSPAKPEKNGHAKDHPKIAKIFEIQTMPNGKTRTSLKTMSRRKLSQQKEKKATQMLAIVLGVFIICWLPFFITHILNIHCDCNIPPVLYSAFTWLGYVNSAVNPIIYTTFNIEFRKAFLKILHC
Chain of Dopamine receptor D2 (P14416 whole entry, species assumed): as the sequence (P14416 whole entry) above

Structure (SMILES)	radioligand percentage inhibition D2 (D2 Receptor) [%]	D2 functional mode (Dopamine receptor D2)	D4 functional mode (Dopamine receptor D4)	Ki (D4 Receptor) [nM]
COc1cc2c(cc1OC)C(=O)N(CCCCN1CCN(c3ccccc3OC)CC1)C2 [Compound 3]	96	inverse agonist	agonist	–
c1cncc(OC[C@@H]2CN(CCN3CCc4ccccc43)CCO2)c1 [Compound 21s]	–	–	–	< 1000
COc1cc2c(cc1OC)C(=O)C(CC1CCN(Cc3ccccc3)CC1)C2 (stereo not drawn) [Donepezil (Cpd 1), Donepezil, reference compound]	19	–	inverse agonist	–

— article PMC3653568 (Nature, 2012)
